{"source": "patent US20230212144A1", "about": "“5-MEMBERED HETEROARYL DERIVATIVE CONTAINING AT LEAST ONE N, AND PHARMACEUTICAL COMPOSITION FOR PREVENTING OR TREATING MENTAL DISORDERS, CONTAINING SAME AS ACTIVE INGREDIENT” (DAEGU-GYEONGBUK MEDICAL INNOVATION FOUNDATION, priority 2020, published 2023)", "key": {"[1]": {"molecular_target": "dopamine transporter (DAT) (Homo sapiens, UniProt Q01959)", "sequence (Q01959 whole entry, species assumed)": "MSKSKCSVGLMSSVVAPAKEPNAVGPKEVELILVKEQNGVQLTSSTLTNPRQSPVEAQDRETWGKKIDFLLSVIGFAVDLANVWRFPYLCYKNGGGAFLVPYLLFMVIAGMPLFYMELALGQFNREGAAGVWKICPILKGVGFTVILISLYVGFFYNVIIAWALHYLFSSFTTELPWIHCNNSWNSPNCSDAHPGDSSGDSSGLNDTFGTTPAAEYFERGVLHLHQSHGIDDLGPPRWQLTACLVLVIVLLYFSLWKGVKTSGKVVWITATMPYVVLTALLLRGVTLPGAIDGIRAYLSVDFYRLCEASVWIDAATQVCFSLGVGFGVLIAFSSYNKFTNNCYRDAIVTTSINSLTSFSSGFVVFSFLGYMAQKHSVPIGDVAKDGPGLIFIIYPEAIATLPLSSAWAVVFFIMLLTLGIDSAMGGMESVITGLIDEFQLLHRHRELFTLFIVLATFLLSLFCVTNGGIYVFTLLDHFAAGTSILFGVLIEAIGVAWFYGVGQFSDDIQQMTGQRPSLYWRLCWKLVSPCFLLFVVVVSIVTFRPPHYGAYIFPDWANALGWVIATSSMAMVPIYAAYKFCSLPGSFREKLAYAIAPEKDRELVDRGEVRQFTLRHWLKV", "experiment": "Dopamine reuptake inhibition, [3H]-DA, HEK-293 cells transfected with dopamine transporter cDNA", "conditions": "for Triple reuptake inhibition (Ratio %) DAT: compound 1 μM, relative to control without compound (100%), lower value = stronger inhibition", "experimental": "(§1) After removing the medium, each compound of Examples or Comparative Examples diluted to 1 μM in uptake buffer was added to a concentration of 200 μL/well and cultured at 37° C. for 15 minutes. 100 μL of uptake buffer containing 20-30 nM [3H]-DA was added and cultured at 37° C. for 5 minutes. The reaction solution was quickly removed and washed three times with 1 mL ice-cold uptake buffer. After dissolving the resultant in 1% SDS (0.5 mL), the degree of binding of radioisotope-labeled dopamine to the transporter was measured.\n(§2) In addition, when evaluating the reuptake inhibitory effect on dopamine, norepinephrine, and serotonin, the same method was performed without treating each compound of Examples or Comparative Examples as a control, the degree of binding of radioisotope-labeled dopamine, norepinephrine, and serotonin to the transporter was measured, and by using this as a reference (100%), the triple reuptake inhibitory effect was evaluated as a relative ratio (Ratio %). That is, in the control group, the binding of dopamine, norepinephrine, and serotonin to transporters is not inhibited, but when each compound of Examples is treated and thus the binding is inhibited, the Ratio % value decreases."}, "[2]": {"molecular_target": "serotonin transporter (SERT) (Homo sapiens, UniProt P31645)", "sequence (P31645 whole entry, species assumed)": "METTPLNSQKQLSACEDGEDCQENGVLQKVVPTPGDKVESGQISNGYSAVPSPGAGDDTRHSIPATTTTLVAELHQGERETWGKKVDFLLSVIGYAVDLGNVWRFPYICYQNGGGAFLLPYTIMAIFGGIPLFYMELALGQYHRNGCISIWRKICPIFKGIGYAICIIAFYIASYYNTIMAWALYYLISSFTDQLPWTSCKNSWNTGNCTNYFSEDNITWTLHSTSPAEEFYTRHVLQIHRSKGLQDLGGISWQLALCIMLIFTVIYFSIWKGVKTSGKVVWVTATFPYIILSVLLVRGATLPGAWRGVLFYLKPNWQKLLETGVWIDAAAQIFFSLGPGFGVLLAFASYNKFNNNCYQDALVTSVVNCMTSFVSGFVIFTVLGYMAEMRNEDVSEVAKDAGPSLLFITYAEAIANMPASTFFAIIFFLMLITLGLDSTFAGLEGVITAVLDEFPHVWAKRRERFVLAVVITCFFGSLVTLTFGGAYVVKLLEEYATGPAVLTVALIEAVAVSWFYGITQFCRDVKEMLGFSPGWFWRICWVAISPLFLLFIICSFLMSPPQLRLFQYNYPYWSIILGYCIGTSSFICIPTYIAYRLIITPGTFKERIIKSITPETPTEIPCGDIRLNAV", "experiment": "Serotonin reuptake inhibition, [3H]-5-HT, cells transfected with 5-HT transporter cDNA", "conditions": "for Triple reuptake inhibition (Ratio %) SERT: compound 1 μM, relative to control without compound (100%), lower value = stronger inhibition", "experimental": "as §1\n(§3) For norepinephrine(NE) and serotonin(5-HT), the degree of binding of radioisotope-labeled norepinephrine or serotonin to the transporter was measured in the same manner as above, except that cells transfected with NE or 5-HT transporter cDNA were used and [3H]-NE or [3H]-5-HT was used as a substrate.\nas §2"}, "[3]": {"molecular_target": "norepinephrine transporter (NET) (Homo sapiens, UniProt P23975)", "sequence (P23975 whole entry, species assumed)": "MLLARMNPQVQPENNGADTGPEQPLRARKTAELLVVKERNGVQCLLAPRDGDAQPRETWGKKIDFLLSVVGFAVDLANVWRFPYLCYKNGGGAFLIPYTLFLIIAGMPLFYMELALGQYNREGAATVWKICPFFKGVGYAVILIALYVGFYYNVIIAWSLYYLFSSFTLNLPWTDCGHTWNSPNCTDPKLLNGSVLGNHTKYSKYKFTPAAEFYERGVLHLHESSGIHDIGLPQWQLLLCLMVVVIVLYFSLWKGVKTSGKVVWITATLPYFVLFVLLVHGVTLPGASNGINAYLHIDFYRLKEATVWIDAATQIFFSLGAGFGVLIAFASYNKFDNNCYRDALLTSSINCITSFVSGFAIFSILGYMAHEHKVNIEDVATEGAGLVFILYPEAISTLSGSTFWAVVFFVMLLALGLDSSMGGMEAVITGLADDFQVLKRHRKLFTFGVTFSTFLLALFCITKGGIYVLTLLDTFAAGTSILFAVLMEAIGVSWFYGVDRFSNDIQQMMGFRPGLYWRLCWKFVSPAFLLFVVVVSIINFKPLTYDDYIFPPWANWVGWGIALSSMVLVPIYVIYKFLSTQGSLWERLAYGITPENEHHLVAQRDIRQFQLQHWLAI", "experiment": "Norepinephrine reuptake inhibition, [3H]-NE, cells transfected with NE transporter cDNA", "conditions": "for Triple reuptake inhibition (Ratio %) NET: compound 1 μM, relative to control without compound (100%), lower value = stronger inhibition", "experimental": "as §1, §3, §2"}}}
{"smiles": "FC(F)(F)c1ccc(-c2nnc(CN3CCC(Cc4ccccc4)CC3)[nH]2)cc1", "note": "[Example 50, 4-benzyl-1-((5-(4-(trifluoromethyl)phenyl)-4H-1,2,4-triazol-3-yl)methyl)piperidine]", "values": [{"measurement": "IC50", "setting": "[1]", "value": 236, "unit": "nM"}, {"measurement": "Triple reuptake inhibition (Ratio %) DAT", "setting": "[1]", "value": 20.84, "unit": "%"}, {"measurement": "IC50", "setting": "[2]", "value": 5700, "unit": "nM"}, {"measurement": "Triple reuptake inhibition (Ratio %) SERT", "setting": "[2]", "value": 66.02, "unit": "%"}, {"measurement": "IC50", "setting": "[3]", "value": 176, "unit": "nM"}, {"measurement": "Triple reuptake inhibition (Ratio %) NET", "setting": "[3]", "value": 27.46, "unit": "%"}]}
{"smiles": "CC(=O)Nc1ccc(-c2nnc(CN3CCC(Cc4ccccc4)CC3)[nH]2)cc1", "note": "[Example 51, N-(4-(5-((4-benzylpiperidin-1-yl)methyl)-4H-1,2,4-triazol-3-yl)phenyl)acetamide]", "values": [{"measurement": "Triple reuptake inhibition (Ratio %) DAT", "setting": "[1]", "value": 75.88, "unit": "%"}, {"measurement": "Triple reuptake inhibition (Ratio %) SERT", "setting": "[2]", "value": 38.36, "unit": "%"}, {"measurement": "Triple reuptake inhibition (Ratio %) NET", "setting": "[3]", "value": 56.36, "unit": "%"}]}
{"smiles": "Oc1ccc2cc(-c3nnc(CN4CCC(Cc5ccccc5)CC4)[nH]3)ccc2c1", "note": "[Example 52, 6-(5-((4-benzylpiperidin-1-yl)methyl)-4H-1,2,4-triazol-3-yl)naphthalen-2-ol]", "values": [{"measurement": "Triple reuptake inhibition (Ratio %) DAT", "setting": "[1]", "value": 48.72, "unit": "%"}, {"measurement": "Triple reuptake inhibition (Ratio %) SERT", "setting": "[2]", "value": 52.31, "unit": "%"}, {"measurement": "Triple reuptake inhibition (Ratio %) NET", "setting": "[3]", "value": 50.92, "unit": "%"}]}
{"smiles": "c1ccc(CC2CCN(Cc3nnc(-c4ccc(Oc5ccccc5)cc4)[nH]3)CC2)cc1", "note": "[Example 53, 4-benzyl-1-((5-(4-phenoxyphenyl)-4H-1,2,4-triazol-3-yl)methyl)piperidine]", "values": [{"measurement": "Triple reuptake inhibition (Ratio %) DAT", "setting": "[1]", "value": 52.90, "unit": "%"}, {"measurement": "Triple reuptake inhibition (Ratio %) SERT", "setting": "[2]", "value": 77.61, "unit": "%"}, {"measurement": "Triple reuptake inhibition (Ratio %) NET", "setting": "[3]", "value": 28.99, "unit": "%"}]}
{"smiles": "FC(F)(F)Oc1cccc(-c2nnc(CN3CCC(Cc4ccccc4)CC3)[nH]2)c1", "note": "[Example 54, 4-benzyl-1-((5-(3-(trifluoromethoxy)phenyl)-4H-1,2,4-triazol-3-yl)methyl)piperidine]", "values": [{"measurement": "Triple reuptake inhibition (Ratio %) DAT", "setting": "[1]", "value": 38.97, "unit": "%"}, {"measurement": "Triple reuptake inhibition (Ratio %) SERT", "setting": "[2]", "value": 88.15, "unit": "%"}, {"measurement": "Triple reuptake inhibition (Ratio %) NET", "setting": "[3]", "value": 52.40, "unit": "%"}]}
{"smiles": "FC(F)(F)c1cccc(-c2nnc(CN3CCC(Cc4ccccc4)CC3)[nH]2)c1", "note": "[Example 55, 4-benzyl-1-((5-(3-(trifluoromethyl)phenyl)-4H-1,2,4-triazol-3-yl)methyl)piperidine]", "values": [{"measurement": "Triple reuptake inhibition (Ratio %) DAT", "setting": "[1]", "value": 40.14, "unit": "%"}, {"measurement": "Triple reuptake inhibition (Ratio %) SERT", "setting": "[2]", "value": 86.78, "unit": "%"}, {"measurement": "Triple reuptake inhibition (Ratio %) NET", "setting": "[3]", "value": 66.71, "unit": "%"}]}
{"smiles": "COc1ccc2c(-c3nnc(CN4CCC(Cc5ccccc5)CC4)[nH]3)c[nH]c2c1", "note": "[Example 56, 3-(5-((4-benzylpiperidin-1-yl)methyl)-4H-1,2,4-triazol-3-yl)-6-methoxy-1H-indole]", "values": [{"measurement": "IC50", "setting": "[1]", "value": 1200, "unit": "nM"}, {"measurement": "Triple reuptake inhibition (Ratio %) DAT", "setting": "[1]", "value": 45.52, "unit": "%"}, {"measurement": "IC50", "setting": "[2]", "value": 300, "unit": "nM"}, {"measurement": "Triple reuptake inhibition (Ratio %) SERT", "setting": "[2]", "value": 15.26, "unit": "%"}, {"measurement": "IC50", "setting": "[3]", "value": 640, "unit": "nM"}, {"measurement": "Triple reuptake inhibition (Ratio %) NET", "setting": "[3]", "value": 39.66, "unit": "%"}]}
{"smiles": "NC(=O)c1ccc2[nH]c(-c3nnc(CN4CCC(Cc5ccccc5)CC4)[nH]3)cc2c1", "note": "[Example 57, 2-(5-((4-benzylpiperidin-1-yl)methyl)-4H-1,2,4-triazol-3-yl)-1H-indol-5-carboxamide]", "values": [{"measurement": "IC50", "setting": "[1]", "value": 208, "unit": "nM"}, {"measurement": "Triple reuptake inhibition (Ratio %) DAT", "setting": "[1]", "value": 20.95, "unit": "%"}, {"measurement": "IC50", "setting": "[2]", "value": 580, "unit": "nM"}, {"measurement": "Triple reuptake inhibition (Ratio %) SERT", "setting": "[2]", "value": 56.55, "unit": "%"}, {"measurement": "IC50", "setting": "[3]", "value": 463, "unit": "nM"}, {"measurement": "Triple reuptake inhibition (Ratio %) NET", "setting": "[3]", "value": 37.21, "unit": "%"}]}
{"smiles": "CN(C)CCNC(=O)c1ccc(-c2nnc(CN3CCC(Cc4ccccc4)CC3)[nH]2)cc1", "note": "[Example 58, 4-(5-((4-benzylpiperidin-1-yl)methyl)-4H-1,2,4-triazol-3-yl)-N-(2-(dimethylamino)ethyl)benzoamide]", "values": [{"measurement": "Triple reuptake inhibition (Ratio %) DAT", "setting": "[1]", "value": 77.67, "unit": "%"}, {"measurement": "Triple reuptake inhibition (Ratio %) SERT", "setting": "[2]", "value": 50.24, "unit": "%"}, {"measurement": "Triple reuptake inhibition (Ratio %) NET", "setting": "[3]", "value": 76.51, "unit": "%"}]}
{"smiles": "COc1ccc2c(-c3nnc(CN4CCC(Cc5ccc(Cl)c(Cl)c5)CC4)[nH]3)c[nH]c2c1", "note": "[Example 59, 3-(5-((4-(3,4-dichlorobenzyl)piperidin-1-yl)methyl)-4H-1,2,4-triazol-3-yl)-6-methoxy-1H-indole]", "values": [{"measurement": "Triple reuptake inhibition (Ratio %) DAT", "setting": "[1]", "value": 75.06, "unit": "%"}, {"measurement": "IC50", "setting": "[2]", "value": 226, "unit": "nM"}, {"measurement": "Triple reuptake inhibition (Ratio %) SERT", "setting": "[2]", "value": 31.88, "unit": "%"}, {"measurement": "Triple reuptake inhibition (Ratio %) NET", "setting": "[3]", "value": 77.82, "unit": "%"}]}
{"smiles": "COC(=O)c1cccc2c(-c3nnc(CN4CCC(Cc5ccc(Cl)c(Cl)c5)CC4)[nH]3)c[nH]c12", "note": "[Example 60, methyl 3-(5-((4-(3,4-dichlorobenzyl)piperidin-1-yl)methyl)-4H-1,2,4-triazol-3-yl)-1H-indol-7-carboxylate]", "values": [{"measurement": "Triple reuptake inhibition (Ratio %) DAT", "setting": "[1]", "value": 94.44, "unit": "%"}, {"measurement": "IC50", "setting": "[2]", "value": 1870, "unit": "nM"}, {"measurement": "Triple reuptake inhibition (Ratio %) SERT", "setting": "[2]", "value": 61.70, "unit": "%"}, {"measurement": "Triple reuptake inhibition (Ratio %) NET", "setting": "[3]", "value": 95.63, "unit": "%"}]}
{"smiles": "FC(F)(F)Oc1ccc(-c2nnc(CN3CCC(Cc4ccc(Cl)c(Cl)c4)CC3)[nH]2)cc1", "note": "[Example 61, 4-(3,4-dichlorobenzyl)-1-((5-(4-(trifluoromethoxy)phenyl)-4H-1,2,4-triazol-3-yl)methyl)piperidine]", "values": [{"measurement": "Triple reuptake inhibition (Ratio %) DAT", "setting": "[1]", "value": 59.39, "unit": "%"}, {"measurement": "Triple reuptake inhibition (Ratio %) SERT", "setting": "[2]", "value": 82.77, "unit": "%"}, {"measurement": "Triple reuptake inhibition (Ratio %) NET", "setting": "[3]", "value": 48.25, "unit": "%"}]}
{"smiles": "FC(F)(F)c1ccc(-c2nnc(CN3CCC(Cc4ccc(Cl)c(Cl)c4)CC3)[nH]2)cc1", "note": "[Example 62, 4-(3,4-dichlorobenzyl)-1-((5-(4-(trifluoromethyl)phenyl)-4H-1,2,4-triazol-3-yl)methyl)piperidine]", "values": [{"measurement": "Triple reuptake inhibition (Ratio %) DAT", "setting": "[1]", "value": 52.96, "unit": "%"}, {"measurement": "Triple reuptake inhibition (Ratio %) SERT", "setting": "[2]", "value": 79.73, "unit": "%"}, {"measurement": "Triple reuptake inhibition (Ratio %) NET", "setting": "[3]", "value": 36.41, "unit": "%"}]}
{"smiles": "COC(=O)c1ccc(-c2nnc(CN3CCC(Cc4ccccc4)CC3)[nH]2)cc1N", "note": "[Example 63, methyl 2-amino-4-(5-((4-benzylpiperidin-1-yl)methyl)-4H-1,2,4-triazol-3-yl)benzoate]", "values": [{"measurement": "IC50", "setting": "[1]", "value": 221, "unit": "nM"}, {"measurement": "Triple reuptake inhibition (Ratio %) DAT", "setting": "[1]", "value": 26.54, "unit": "%"}, {"measurement": "IC50", "setting": "[2]", "value": 1840, "unit": "nM"}, {"measurement": "Triple reuptake inhibition (Ratio %) SERT", "setting": "[2]", "value": 61.10, "unit": "%"}, {"measurement": "IC50", "setting": "[3]", "value": 327, "unit": "nM"}, {"measurement": "Triple reuptake inhibition (Ratio %) NET", "setting": "[3]", "value": 27.25, "unit": "%"}]}
{"smiles": "Fc1ccc2[nH]c(-c3nnc(CN4CCN(Cc5ccccc5)CC4)[nH]3)cc2c1", "note": "[Example 64, 2-(5-((4-benzylpiperazin-1-yl)methyl)-4H-1,2,4-triazol-3-yl)-5-fluoro-1H-indole]", "values": [{"measurement": "Triple reuptake inhibition (Ratio %) DAT", "setting": "[1]", "value": 32.65, "unit": "%"}, {"measurement": "Triple reuptake inhibition (Ratio %) SERT", "setting": "[2]", "value": 91.98, "unit": "%"}, {"measurement": "Triple reuptake inhibition (Ratio %) NET", "setting": "[3]", "value": 64.96, "unit": "%"}]}
{"smiles": "Clc1ccc2[nH]c(-c3nnc(CN4CCN(Cc5ccccc5)CC4)[nH]3)cc2c1", "note": "[Example 65, 2-(5-((4-benzylpiperazin-1-yl)methyl)-4H-1,2,4-triazol-3-yl)-5-chloro-1H-indole]", "values": [{"measurement": "Triple reuptake inhibition (Ratio %) DAT", "setting": "[1]", "value": 28.61, "unit": "%"}, {"measurement": "Triple reuptake inhibition (Ratio %) SERT", "setting": "[2]", "value": 92.53, "unit": "%"}, {"measurement": "Triple reuptake inhibition (Ratio %) NET", "setting": "[3]", "value": 67.11, "unit": "%"}]}
